Test results: publication PMC5056396, “Hexokinase I N-terminal based peptide prevents the VDAC1-SOD1 G93A interaction and re-establishes ALS cell viability” (Scientific Reports, 2016)

Legend:
[1] = test system: SOD1 G93A binding to intact mitochondria purified from NSC34 cells; test: Mitochondrial binding assay of SOD1 G93A after pre-incubation with peptide; parameters: species or system mouse; settings: scramble control
Procedure: The ability of NHK1 to inhibit SOD1 G93A from binding the mitochondrial surface was investigated using intact mitochondria purified from NSC34 cells. Mitochondria were incubated with SOD1 G93A, in the presence or absence of 60 μM NHK1 peptide. […] Following incubation with NHK1, a dramatic decrease of 85% SOD1 G93A bound to mitochondria was seen (Fig. 5D). Again, no effect was found by incubating mitochondria with the ScNHK1 peptide.
Intact mitochondria were purified from NSC34 cells by Mitochondrial isolation kit (Miltenyi Biotech), according with manufacturer’s instructions. Isolated, intact mitochondria, in the storage buffer provided, were quantified by Lowry method. Mitochondria were incubated with 2 μg of purified SOD1 WT or G93A for 1 h at RT, under constant shaking in storage buffer. Alternatively, a pre-incubation with 60 μM NHK1 peptide for 1 h, in the same condition, was performed. Mitochondrial pellet was collected by centrifugation for 2 min at 13000×g. Supernatants were collected, and mitochondrial pellets were lysed using 3% Triton X-100. Proteins in mitochondrial or supernatant fraction were detected by western blot and quantified as explained in Supplementary Information. At least, three independent experiments were performed.

[2] = test system: NSC34-SOD1G93A cells; test: Cell viability assay (MTT); type: cell-based, mouse; settings: expression from transfected plasmid
Description: (§1) In order to analyze the effect of NHK1 peptide in our ALS-like in cellulo system, the subcellular distribution of NHK1 peptide was investigated. NSC34 cells were transiently transfected with a plasmid encoding for a HA-tagged NHK1 peptide and for a mitochondrial-targeted Red Fluorescent Protein (mtDsRED)[18]. […] Then, the NHK1 peptide, as well as the whole HK1 as control, was expressed in NSC34-SOD1G93A or SOD1WT to evaluate its ability to counteract the toxicity mediated by mutSOD1. Literature reports indicate that SOD1 mutants expression in NSC34 cell promote a significative loss of cell viability, accordingly with the specific mutation. […] Therefore, supplementation of NHK1 peptide (or HK1) to NSC34-SOD1G93A cells promotes a recovery of the cell viability.
24 h-induced NSC34-SOD1WT and NSC34-SOD1G93A cells seeded on 24-well plates were transfected using 0,25 μg of pEGFP-N1-HK1 or empty pEGFP-N1 or 0,5 μg of pMCS-mtDsRED-NHK1 or scramble or empty pCMS-mtDsRED. Cell viability was analyzed using 3-(4,5-dimethylthiazol-2-yl)-2,5-diphenyltetrazolium bromide (MTT)[47] (Sigma). A colorimetric assay was performed using the microplate reader Varioskan (Thermo Scientific). Reported data are representative for three sets of independent experiments, each performed in triplicate. Data were statistically analyzed using one-way ANOVA followed by Bonferroni post hoc test. […]

[3] = test system: NSC34 cells; test: Subcellular distribution by indirect immunofluorescence; type: cell-based, mouse; settings: HA-tagged NHK1 expressed from plasmid with mtDsRED, transient transfection
Description: as §1
Plasmids and cell transfection […]
NSC34 cells not transfected or transfected with 0,5 µg of pCMS-mtDsRED-NHK1-HA were fixed in 3.7% formaldehyde and permeabilized using 0.3% Triton X-100. […] Endogenous HK1 was detected in not transfected cells by incubating over-night cells with rabbit anti-HK1 antibody (1:100) (Abcam). NHK1-HA was detected in transfected cells by incubating over-night cells with rabbit anti-HA antibody (1:100) (Santa Cruz Biotechnology, Inc.). […]
examined by fluorescence microscopy. […]

Row | Sequence | effect on SOD1 G93A bound to mitochondria [1] | effect on cell viability of NSC34-SOD1G93A [2] | subcellular localization [3]
1 | FAQLTIALAYY [ScNHK1, scramble peptide (…) synthetized and used as control, reference compound] | no effect | does not change the cell viability | –
2 | IAAQLLAYYFT [NHK1, peptide corresponding to residues 2–12 (N-terminal region) of human HK1 protein (…)] | – | – | mainly co-localized with mtDsRED signal
